Among the data in patent US11530208B2, “Imidazo[4,5-C]pyridine derived SSAO inhibitors” (PROXIMAGEN, LLC, priority 2014, dated 2022) are IC50 values, retold here.

Data set [1] deals with human SSAO (Homo sapiens (Human), UniProt Q16853). Nature of the data set: SSAO enzyme inhibition assay. It is filed as biochemical. Conditions: purified recombinantly expressed human SSAO, benzylamine substrate, RT. As for the experimental part:
All primary assays were performed at RT. with purified recombinantly expressed human SSAO. Enzyme was prepared essentially as described in Öhman et al. (Protein Expression and Purification 46 (2006) 321-331). In addition, secondary- and selectivity assays were performed using SSAO prepared from various tissues or purified rat recombinant SSAO. The enzyme activity was assayed with benzylamine as substrate by measuring either benzaldehyde production, using ^14C-labeled substrate, or by utilizing the production of hydrogen peroxide in a horseradish peroxidase (HRP) coupled reaction. Briefly, test compounds were dissolved in dimethyl sulfoxide (DMSO) to a concentration of 10 mM. Dose-response measurements were assayed by either creating 1:10 serial dilutions in DMSO to produce a 7 point curve or by making 1:3 serial dilutions in DMSO to produce 11 point curves. The top concentrations were adjusted depending on the potency of the compounds and subsequent dilution in reaction buffer yielded a final DMSO concentration ≤2%.
In a horseradish peroxidase (HRP) coupled reaction, hydrogen peroxide oxidation of 10-acetyl-3,7-dihydroxyphenoxazine produced resorufin, which is a highly fluorescent compound (Zhout and Panchuk-Voloshina. Analytical Biochemistry 253 (1997) 169-174; Amplex® Red Hydrogen Peroxide/peroxidase Assay kit, Invitrogen A22188). Enzyme and compounds in 50 mM sodium phosphate, pH 7.4 were set to pre-incubate in flat-bottomed microtiter plates for approximately 15 min before initiating the reaction by addition of a mixture of HRP, benzylamine and Amplex reagent. Benzylamine concentration was fixed at a concentration corresponding to the Michaelis constant, determined using standard procedures. Fluorescence intensity was then measured at several time points during 1-2 h, exciting at 544 nm and reading the emission at 590 nm. For the human SSAO assay final concentrations of the reagents in the assay wells were: SSAO enzyme 1 ug/mL, benzylamine 100 uM, Amplex reagent 20 uM, HRP 0.1 U/mL and varying concentrations of test compound. The inhibition was measured as % decrease of the signal compared to a control without inhibitor (only diluted DMSO). The background signal from a sample containing no SSAO enzyme was subtracted from all data points. Data was fitted to a four parameter logistic model and IC50 values were calculated using the GraphPad Prism 4 or XLfit 4 programs.
SSAO activity was assayed using 14C-labeled benzylamine and analysed by measuring radioactive benzaldehyde. In a white 96-well optiplate (Packard), 20 uL of diluted test compound was pre-incubated at RT with 20 uL SSAO enzyme for approximately 15 min with continuous agitation. All dilutions were made with PBS. The reaction was initiated by adding 20 uL of the benzylamine substrate solution containing [7-14C] Benzylamine hydrochloride (CFA589, GE Healthcare). The plate was incubated for 1 h as above after which the reaction was stopped by acidification (10 uL 1M aq HCl). Then 90 uL Micro Scint-E solution (Perkin-Elmer) was added to each well and the plate was continuously mixed for 15 min. Phase separation occurred instantly and activity was read in a Topcount scintillation counter (Perkin-Elmer). In the final reaction well, the human recombinant SSAO concentration was 10 ug/mL. In order to optimize sensitivity, the substrate concentration was decreased as compared to the HRP coupled assay in order to get a higher fraction of radioactive product. In the human SSAO assay, benzylamine concentration was 40 uM (0.2 uCi/mL). Data was analysed as above.

The target of data set [2] is human ether a go-go related gene (hERG) K+ channel (Homo sapiens (Human), UniProt Q12809). Nature of the data set: hERG assay, IonWorks patch clamp electrophysiology. It is filed as cell-based. Particulars: Chinese Hamster Lung cell line stably expressing hERG, max concentration 11 uM. As for the experimental part:
Compounds of the invention were tested for inhibition of the human ether a go-go related gene (hERG) K^+ channel using IonWorks patch clamp electrophysiology. 8 Point concentration-response curves were generated on two occasions using 3-fold serial dilutions from the maximum assay concentration (11 uM). Electrophysiological recordings were made from a Chinese Hamster Lung cell line stably expressing the full length hERG channel. Single cell ion currents were measured in the perforated patch clamp configuration (100 ug/mL amphoterocin) at RT using an IonWorks Quattro instrument. The internal solution contained 140 mM KCl, 1 mM MgCl2, 1 mM EGTA and 20 mM HEPES and was buffered to pH 7.3. The external solution contained 138 mM NaCl, 2.7 mM KCl, 0.9 mM CaCl2, 0.5 mM MgCl2, 8 mM Na2HPO4 and 1.5 mM KH2PO4, and was buffered to pH 7.3. Cells were clamped at a holding potential of […] for 30 s and then stepped to +40 mV for 1 s. This was followed by a hyperpolarising step of 1 s to […] to evoke the hERG tail current. This sequence was repeated 5 times at a frequency of 0.25 Hz. Currents were measured from the tail step at the 5th pulse, and referenced to the holding current. Compounds were incubated for 6-7 min prior to a second measurement of the hERG signal using an identical pulse train. A minimum of 17 cells were required for each pIC50 curve fit. […]
On the technique in general: hERG is a cardiac potassium channel; its block is linked to QT prolongation.

The IC50 is the concentration needed to halve the response being measured.

Sequence of human SSAO (Q16853 29-763): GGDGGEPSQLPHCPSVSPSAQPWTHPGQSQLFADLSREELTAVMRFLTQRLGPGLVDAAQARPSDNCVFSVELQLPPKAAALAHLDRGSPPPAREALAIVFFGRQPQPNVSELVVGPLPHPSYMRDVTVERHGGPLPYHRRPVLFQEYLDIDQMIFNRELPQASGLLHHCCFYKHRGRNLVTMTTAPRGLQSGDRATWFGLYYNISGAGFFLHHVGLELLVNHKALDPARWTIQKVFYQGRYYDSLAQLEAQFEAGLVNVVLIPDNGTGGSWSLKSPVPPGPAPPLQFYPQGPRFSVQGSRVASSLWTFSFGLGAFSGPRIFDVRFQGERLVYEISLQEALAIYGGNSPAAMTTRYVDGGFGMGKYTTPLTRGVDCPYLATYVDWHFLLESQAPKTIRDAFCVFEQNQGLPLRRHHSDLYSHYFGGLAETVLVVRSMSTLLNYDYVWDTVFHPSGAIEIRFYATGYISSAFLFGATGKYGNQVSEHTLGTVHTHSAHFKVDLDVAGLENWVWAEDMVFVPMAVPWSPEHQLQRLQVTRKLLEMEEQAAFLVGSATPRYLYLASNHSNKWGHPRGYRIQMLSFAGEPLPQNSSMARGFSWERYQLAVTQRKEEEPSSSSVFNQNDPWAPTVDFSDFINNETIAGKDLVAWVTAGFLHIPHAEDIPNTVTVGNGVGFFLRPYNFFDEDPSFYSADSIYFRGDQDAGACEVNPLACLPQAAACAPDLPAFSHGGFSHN
Sequence of human ether a go-go related gene (hERG) K+ channel (Q12809 whole entry): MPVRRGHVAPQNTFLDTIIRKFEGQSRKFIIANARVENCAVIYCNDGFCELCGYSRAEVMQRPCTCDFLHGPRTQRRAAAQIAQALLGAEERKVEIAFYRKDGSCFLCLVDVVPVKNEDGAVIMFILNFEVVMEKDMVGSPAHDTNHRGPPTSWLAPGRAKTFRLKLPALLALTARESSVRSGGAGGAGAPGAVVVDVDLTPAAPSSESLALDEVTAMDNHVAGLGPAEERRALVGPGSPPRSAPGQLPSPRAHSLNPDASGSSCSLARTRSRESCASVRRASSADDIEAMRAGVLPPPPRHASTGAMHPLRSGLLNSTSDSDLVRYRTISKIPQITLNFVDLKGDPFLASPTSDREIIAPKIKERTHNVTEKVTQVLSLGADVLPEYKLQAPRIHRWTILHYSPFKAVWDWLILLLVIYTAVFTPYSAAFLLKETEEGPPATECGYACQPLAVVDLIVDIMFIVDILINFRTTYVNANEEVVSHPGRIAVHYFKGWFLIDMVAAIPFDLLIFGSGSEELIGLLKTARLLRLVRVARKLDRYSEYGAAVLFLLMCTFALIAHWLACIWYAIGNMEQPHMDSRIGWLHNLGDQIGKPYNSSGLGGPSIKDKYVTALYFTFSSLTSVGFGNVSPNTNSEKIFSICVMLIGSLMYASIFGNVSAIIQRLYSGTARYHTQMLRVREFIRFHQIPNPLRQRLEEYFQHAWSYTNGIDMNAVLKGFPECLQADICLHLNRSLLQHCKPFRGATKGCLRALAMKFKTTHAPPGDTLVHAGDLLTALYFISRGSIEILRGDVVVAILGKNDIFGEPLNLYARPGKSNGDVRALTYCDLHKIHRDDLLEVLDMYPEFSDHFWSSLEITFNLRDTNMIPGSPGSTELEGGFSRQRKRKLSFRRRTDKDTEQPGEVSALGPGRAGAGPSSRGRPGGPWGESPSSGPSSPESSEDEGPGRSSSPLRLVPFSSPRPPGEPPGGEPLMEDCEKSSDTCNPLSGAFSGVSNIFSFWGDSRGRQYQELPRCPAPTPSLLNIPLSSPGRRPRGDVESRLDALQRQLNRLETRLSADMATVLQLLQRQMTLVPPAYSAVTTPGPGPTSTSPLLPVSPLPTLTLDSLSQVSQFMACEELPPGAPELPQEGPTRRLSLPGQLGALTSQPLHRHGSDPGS

Turning to `Fc1ccc(-n2c(-c3ccc4nc[nH]c4c3)nc3ccncc32)cc1` [Example 2, 5-[3-(4-Fluorophenyl)-3H-imidazo[4,5-c]pyridin-2-yl]-1H-1,3-benzodiazole], the IC50 in data set [1] was in the range of 0.2 to 0.5 µM.

With `O=C1Cc2cc(-c3nc4ccncc4n3-c3ccc(F)cc3)ccc2N1` [Example 1, 5-[3-(4-Fluorophenyl)-3H-imidazo[4,5-c]pyridin-2-yl]-2,3-dihydro-1H-indol-2-one], the IC50 in data set [1] is 0.05 to 0.2 µM.

For the compound `Clc1ccc(-n2c(C3CCN(c4ccncc4)CC3)nc3ccncc32)cc1` [Example 5, 4-{4-[3-(4-Chlorophenyl)-3H-imidazo[4,5-c]pyridin-2-yl]piperidin-1-yl}pyridine; bis(formic acid)], the IC50 was less than 0.05 µM in data set [1] and 0.01 to 1 µM in data set [2].

Consider `Clc1ccc(-n2c(Cc3cccnc3)nc3ccncc32)cc1` [Example 7, 3-{[3-(4-Chlorophenyl)-3H-imidazo[4,5-c]pyridin-2-yl]methyl}pyridine; bis(formic acid)], for which the IC50 in data set [1] was in the range of 0.2 to 0.5 µM.

As to `CC(C)(O)CNc1ncc(-c2nc3ccncc3n2-c2ccc(F)cc2)cn1` [Example 3, 1-({5-[3-(4-Fluorophenyl)-3H-imidazo[4,5-c]pyridin-2-yl]pyrimidin-2-yl}amino)-2-methylpropan-2-ol], the figures for the IC50 in data set [1] and in data set [2] were less than 0.05 µM and more than 10 µM, respectively.

As for `Clc1ccc(-n2c(CCCn3ccnc3)nc3ccncc32)cc1` [Example 8, 1-{3-[3-(4-chlorophenyl)-3H-imidazo[4,5-c]pyridin-2-yl]propyl}-1H-imidazole], the IC50 in data set [1] lay within 0.2 to 0.5 µM.

For `Cc1ccc(-n2c(-c3cnc(NCC(C)(C)O)nc3)nc3ccncc32)cc1` [Example 4, 2-Methyl-1-({5-[3-(4-methylphenyl)-3H-imidazo[4,5-c]pyridin-2-yl]pyrimidin-2-yl}amino)propan-2-ol], the IC50 in data set [1] was less than 0.05 µM.

Regarding `O=C(NCC1CCOCC1)c1nc2ccncc2n1-c1ccc(F)cc1` [Example 9, 3-(4-Fluorophenyl)-N-(oxan-4-ylmethyl)-3H-imidazo[4,5-c]pyridine-2-carboxamide], the IC50 in data set [1] was in the range of 0.2 to 0.5 µM.

In the case of `O=c1cc(N2CCC(c3nc4ccncc4n3-c3ccc(Cl)cc3)CC2)nc[nH]1` [Example 6, 6-{4-[3-(4-Chlorophenyl)-3H-imidazo[4,5-c]pyridin-2-yl]piperidin-1-yl}-3,4-dihydropyrimidin-4-one], the IC50 in data set [1] was 0.2 to 0.5 µM.
